Test results: US20240116892A1, “HETEROCYCLIC AMIDE AND UREA COMPOUNDS AS JAK2 INHIBITORS” (Ajax Therapeutics, Inc., priority 2022, published 2024)

Molecular target: JAK2 (JH1 domain-catalytic, Y1007F, Y1008F) kinase (Homo sapiens (Human), UniProt O60674, Y1007F/Y1008F)
Assay: JAK2 JH1 Domain Binding Assay
Details: qPCR readout
Outline: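 Competitive binding format: test compound, DNA-tagged JAK2 JH1 (Y1007F/Y1008F; HEK293-expressed NFkB fusion) and ligand-coated magnetic beads incubated 1 h at room temperature. Kinase retained on beads released with 0.5 μmol/L non-biotinylated ligand, then measured by qPCR.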

Sequence of JAK2 (JH1 domain-catalytic, Y1007F, Y1008F) kinase (O60674 849-1124 Y1007F/Y1008F): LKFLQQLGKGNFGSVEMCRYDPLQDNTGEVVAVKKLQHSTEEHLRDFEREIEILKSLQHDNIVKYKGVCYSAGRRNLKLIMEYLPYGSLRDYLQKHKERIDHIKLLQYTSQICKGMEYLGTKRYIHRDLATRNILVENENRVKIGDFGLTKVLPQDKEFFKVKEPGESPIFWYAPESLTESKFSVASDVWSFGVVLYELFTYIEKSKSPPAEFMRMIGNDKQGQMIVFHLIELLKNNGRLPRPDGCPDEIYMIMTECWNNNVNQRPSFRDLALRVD

| Compound | Kd [nM] |
| --- | --- |
| C[C@H]1C[C@@H](N(C)C(=O)Nc2cc(C(F)(F)F)cn(C)c2=O)CCN1c1cnc2[nH]ccc2n1 [Example I-126-a, 1-methyl-1-((2S,4S)-2-methyl-1-(5H-pyrrolo[2,3-b]pyrazin-2-yl)piperidin-4-yl)-3-(1-methyl-2-oxo-5-(trifluoromethyl)-1,2-dihydropyridin-3-yl)urea] | < 10 |
| C[C@@H]1C[C@H](N(C)C(=O)Nc2cc(C(F)(F)F)cn(C)c2=O)CCN1c1cnc2[nH]ccc2n1 [Example I-126-b, 1-methyl-1-((2R,4R)-2-methyl-1-(5H-pyrrolo[2,3-b]pyrazin-2-yl)piperidin-4-yl)-3-(1-methyl-2-oxo-5-(trifluoromethyl)-1,2-dihydropyridin-3-yl)urea] | < 10 |
| COCc1cc2nc(N3CC[C@H](N(C)C(=O)Nc4cc(C(F)(F)F)cn(C)c4=O)C[C@@H]3C)cnc2[nH]1 [Example I-127-a, 1-((2S,4S)-1-(6-(methoxymethyl)-5H-pyrrolo[2,3-b]pyrazin-2-yl)-2-methylpiperidin-4-yl)-1-methyl-3-(1-methyl-2-oxo-5-(trifluoromethyl)-1,2-dihydropyridin-3-yl)urea] | 50 to 1000 |
| COCc1cc2nc(N3CC[C@@H](N(C)C(=O)Nc4cc(C(F)(F)F)cn(C)c4=O)C[C@H]3C)cnc2[nH]1 [Example I-127-b, 1-((2R,4R)-1-(6-(methoxymethyl)-5H-pyrrolo[2,3-b]pyrazin-2-yl)-2-methylpiperidin-4-yl)-1-methyl-3-(1-methyl-2-oxo-5-(trifluoromethyl)-1,2-dihydropyridin-3-yl)urea] | 50 to 1000 |
| Cn1cc(C(F)(F)F)cc(NC(=O)N2CCO[C@H]3CN(c4cnc5[nH]ccc5n4)CC[C@@H]32)c1=O [Example I-128-a, (4aS,8aS)-N-(1-methyl-2-oxo-5-(trifluoromethyl)-1,2-dihydropyridin-3-yl)-6-(5H-pyrrolo[2,3-b]pyrazin-2-yl)octahydro-1H-pyrido[3,4-b][1,4]oxazine-1-carboxamide] | 10 to 50 |
| Cn1cc(C(F)(F)F)cc(NC(=O)N2CCO[C@@H]3CN(c4cnc5[nH]ccc5n4)CC[C@H]32)c1=O [Example I-128-b, (4aR,8aR)-N-(1-methyl-2-oxo-5-(trifluoromethyl)-1,2-dihydropyridin-3-yl)-6-(5H-pyrrolo[2,3-b]pyrazin-2-yl)octahydro-1H-pyrido[3,4-b][1,4]oxazine-1-carboxamide] | < 10 |
| CN(C(=O)Nc1cc(C(F)(F)F)cn(C)c1=O)C1CCN(c2cnn3cc(O[C@@H]4CC[C@H]4O)ncc23)CC1 [Example I-129-a, 1-(1-(6-((1R,2R)-2-hydroxycyclobutoxy)pyrazolo[1,5-a]pyrazin-3-yl)piperidin-4-yl)-1-methyl-3-(1-methyl-2-oxo-5-(trifluoromethyl)-1,2-dihydropyridin-3-yl)urea] | < 10 |
| CN(C(=O)Nc1cc(C(F)(F)F)cn(C)c1=O)C1CCN(c2cnn3cc(O[C@H]4CC[C@@H]4O)ncc23)CC1 [Example I-129-b, 1-(1-(6-((1S,2S)-2-hydroxycyclobutoxy)pyrazolo[1,5-a]pyrazin-3-yl)piperidin-4-yl)-1-methyl-3-(1-methyl-2-oxo-5-(trifluoromethyl)-1,2-dihydropyridin-3-yl)urea] | < 10 |
| CO[C@H]1C[C@@H](n2[nH]c3ncc(N4CCC(N(C)C(=O)Nc5cc(C(F)(F)F)cn(C)c5=O)CC4)cc3c2=O)C1 [Example I-130, 1-(1-(2-((1s,3s)-3-methoxycyclobutyl)-3-oxo-2,3-dihydro-1H-pyrazolo[3,4-b]pyridin-5-yl)piperidin-4-yl)-1-methyl-3-(1-methyl-2-oxo-5-(trifluoromethyl)-1,2-dihydropyridin-3-yl)urea] | 50 to 1000 |
| COc1n[nH]c2ncc(N3CC[C@H](N(C)C(=O)Nc4cc(C(F)(F)F)cn(C)c4=O)[C@H](C)C3)cc12 [Example I-131-a, 1-((3R,4S)-1-(3-methoxy-1H-pyrazolo[3,4-b]pyridin-5-yl)-3-methylpiperidin-4-yl)-1-methyl-3-(1-methyl-2-oxo-5-(trifluoromethyl)-1,2-dihydropyridin-3-yl)urea] | < 10 |
| COCCOc1n[nH]c2ncc(N3CC[C@H](N(C)C(=O)Nc4cc(C(F)(F)F)cn(C)c4=O)C[C@@H]3C)cc12 [Example I-132-a, 1-((2S,4S)-1-(3-(2-methoxyethoxy)-1H-pyrazolo[3,4-b]pyridin-5-yl)-2-methylpiperidin-4-yl)-1-methyl-3-(1-methyl-2-oxo-5-(trifluoromethyl)-1,2-dihydropyridin-3-yl)urea] | 10 to 50 |
| COCCOc1n[nH]c2ncc(N3CC[C@@H](N(C)C(=O)Nc4cc(C(F)(F)F)cn(C)c4=O)C[C@H]3C)cc12 [Example I-132-b, 1-((2R,4R)-1-(3-(2-methoxyethoxy)-1H-pyrazolo[3,4-b]pyridin-5-yl)-2-methylpiperidin-4-yl)-1-methyl-3-(1-methyl-2-oxo-5-(trifluoromethyl)-1,2-dihydropyridin-3-yl)urea] | 10 to 50 |
| COc1n[nH]c2ncc(N3CC[C@H](N(C)C(=O)Nc4cc(C(F)(F)F)cn(C)c4=O)C[C@@H]3C)cc12 [Example I-133-a, 1-((2S,4S)-1-(3-methoxy-1H-pyrazolo[3,4-b]pyridin-5-yl)-2-methylpiperidin-4-yl)-1-methyl-3-(1-methyl-2-oxo-5-(trifluoromethyl)-1,2-dihydropyridin-3-yl)urea] | < 10 |
| COc1n[nH]c2ncc(N3CC[C@@H](N(C)C(=O)Nc4cc(C(F)(F)F)cn(C)c4=O)C[C@H]3C)cc12 [Example I-133-b, 1-((2R,4R)-1-(3-methoxy-1H-pyrazolo[3,4-b]pyridin-5-yl)-2-methylpiperidin-4-yl)-1-methyl-3-(1-methyl-2-oxo-5-(trifluoromethyl)-1,2-dihydropyridin-3-yl)urea] | < 10 |
| CC(=O)Nc1cnc(N2CC[C@H](N(C)C(=O)Nc3cc(C(F)(F)F)cn(C)c3=O)C[C@@H]2C)cn1 [Example I-134-a, N-(5-((2S,4S)-2-methyl-4-(1-methyl-3-(1-methyl-2-oxo-5-(trifluoromethyl)-1,2-dihydropyridin-3-yl)ureido)piperidin-1-yl)pyrazin-2-yl)acetamide] | 50 to 1000 |
| CC(=O)Nc1cnc(N2CC[C@@H](N(C)C(=O)Nc3cc(C(F)(F)F)cn(C)c3=O)C[C@H]2C)cn1 [Example I-134-b, N-(5-((2R,4R)-2-methyl-4-(1-methyl-3-(1-methyl-2-oxo-5-(trifluoromethyl)-1,2-dihydropyridin-3-yl)ureido)piperidin-1-yl)pyrazin-2-yl)acetamide] | 10 to 50 |
| C[C@@H]1C[C@H](N(C)C(=O)Nc2cc(C(C)(C)C)n([C@H]3C[C@H](O)C3)n2)CCN1c1cnc2[nH]ncc2c1 [Example I-135-a, 3-(5-(tert-butyl)-1-((1r,3R)-3-hydroxycyclobutyl)-1H-pyrazol-3-yl)-1-methyl-1-((2R,4R)-2-methyl-1-(1H-pyrazolo[3,4-b]pyridin-5-yl)piperidin-4-yl)urea] | 10 to 50 |
| C[C@H]1C[C@@H](N(C)C(=O)Nc2cc(C(C)(C)C)n([C@H]3C[C@H](O)C3)n2)CCN1c1cnc2[nH]ncc2c1 [Example I-135-b, 3-(5-(tert-butyl)-1-((1r,3S)-3-hydroxycyclobutyl)-1H-pyrazol-3-yl)-1-methyl-1-((2S,4S)-2-methyl-1-(1H-pyrazolo[3,4-b]pyridin-5-yl)piperidin-4-yl)urea] | 50 to 1000 |
